Data set [1] relates to reconstructed skin (keratinocytes and melanocytes). The data set can be described thus: Reconstructed human skin model (Melanoderm). The conditions noted are these: for significant whitening of melanocytes observed as early as: after the beginning of the experiment (data not shown); for alterations of cell morphology / whitening effects on skin melanocytes: applied topically for 15 days; for whitening effects on melanocytes: topical, photographs after 14 days; for toxicity on reconstructed skin: at 0.05%. The data set is classed as cell-based. The procedure:
The skin whitening effects of test compounds were studied using a reconstructed skin model, Melanoderm™ provided by MatTek Corp. (Ashland, Mass.) according to the manufacturer's specifications. Briefly, normal human epidermal keratinocytes and normal human melanocytes derived from dark skin donors were co-cultured on a surface of collagen-coated membrane to form multi-layered, highly differentiated skin tissue (MEL-300-B). The tissues were maintained in the CO2, incubator at 37° C. The apical surfaces of the reconstructed skin (9 mm in diameter) were exposed to air whereas the bottom surfaces remained in contact with 5 mL of maintenance medium, containing skin differentiating factors (EPI-100-NNM-113). Test compounds were formulated in 80% propylene glycol as follows: 10 mg of each test compound was dissolved in DMSO and diluted with 80% propylene glycol (1,2-propanediol, Sigma-Aldrich) to stock concentrations. The compounds were then sterilized by passing through 0.2 um filter and diluted in sterile water/propylene glycol to final test concentrations in 0.5% DMSO, 80% propylene glycol. In addition, the following controls were used: 80% propylene glycol with 0.5% DMSO, and 1% kojic acid in 80% propylene glycol.
‘Test compounds were applied to the apical surface of the tissues as follows: 25 μl of each test compound, 25 μl of 80% propylene glycol (vehicle control), and 25 μl of 1% kojic acid (positive control). The samples were reapplied every other day for 14 days. All the samples were tested in duplicate. At the end of the experiment microscopic images were taken.
The potential skin-whitening properties of test compounds were explored in a reconstructed skin model. The model consists of normal, human-derived epidermal keratinocytes and melanocytes, which have been co-cultured to form a multilayered, highly differentiated human epidermis. In this study the melanocytes were obtained from a highly pigmented donor.
Different concentrations of test compounds, 80% propylene glycol (the vehicle control), or 1% kojic acid (positive control) were repeatedly applied topically on the surface of the reconstructed skin for 15 days. […] Photographs of skin specimen taken after 15 days of the experiment show significant dose-dependent whitening effects on melanocytes, which appear on photographs as dark dendritic cells.

Data set [2] deals with 5-lipoxygenase from potato. The data set can be described thus: Lipoxygenase Inhibition Assay. The data set is classed as biochemical. The conditions noted are these: read-out: Anti-inflammatory (IC50) 5-LOX. How it is done: One of the most important pathway involved in the inflammatory response is produced by non-heme, ion-containing lipoxygenases (5-LOX, 12-LOX and 15-LOX) which catalyze the oxidation of fatty acids such as AA to produce the hydoperoxides 5-, 12- and 15-HEPTE, which are then converted to leukotrienes. A Lipoxygenase Inhibition Assay was carried out using commercial kit from Cayman Chemical (cat #760700, 5-lipoxygenase from potato, cat #60400). The test article and positive control were dissolved in 1% DMSO. 90 μL of diluted potato lipoxygenase enzyme and 10 μL inhibitor were added to a flat-bottom clear 96-well microplate. The plate was pre-incubated for five minutes at room temperature. The reaction was initiated by the addition of 10 μL linoleic acid substrate. The plate was then placed on a shaker for 10 minutes at room temperature. 100 μL Chromogen solution was added to each well and the plate was shaken again for five minutes. The absorbance was read at 492 nm using a TECAN Genios plate reader. The inhibitor concentration vs. % of inhibition was plotted and the IC50 determined.

Data set [3] deals with Propionibacterium acnes (ATCC11827). The data set can be described thus: P-acne MIC/MBC test. The data set is classed as cell-based. The conditions noted are these: for MIC: lowest level that inhibits growth, turbidity, 1 day. The procedure:
The anti-microbial activity of the tested compounds were evaluated using published methods (Modugno e. al. (1994) Antimicrobial agents and Chemotherapy 38: 2362-2368; […] et. al. (1973) Antimicrobial agents and Chemotherapy 3: 40-48. Propionibacterium acnes (ATCC11827) was cultured for 20 hours at 37° C. in Reinforced Clostridal medium. The test article and positive control were dissolved in 1% DMSO with an incubation volume of 1 mL. The time of assessment was 1 day. Measurement of turbidity was used as the method of quantification. The compounds were tested in duplicate at concentrations of 250 ug/mL, 125 ug/mL, 62 ug/mL, 31 ug/mL, 16 ug/mL, 8 ug/mL, 4 ug/mL, 2 ug/mL relative to positive control ampicillin at 0.1 ug/mL.

In another data set the target is T1, COX-1 (Ovis aries, UniProt P05979).
T1 construct: purchased Cayman Chemical 701050
T1 sequence (P05979 25-600): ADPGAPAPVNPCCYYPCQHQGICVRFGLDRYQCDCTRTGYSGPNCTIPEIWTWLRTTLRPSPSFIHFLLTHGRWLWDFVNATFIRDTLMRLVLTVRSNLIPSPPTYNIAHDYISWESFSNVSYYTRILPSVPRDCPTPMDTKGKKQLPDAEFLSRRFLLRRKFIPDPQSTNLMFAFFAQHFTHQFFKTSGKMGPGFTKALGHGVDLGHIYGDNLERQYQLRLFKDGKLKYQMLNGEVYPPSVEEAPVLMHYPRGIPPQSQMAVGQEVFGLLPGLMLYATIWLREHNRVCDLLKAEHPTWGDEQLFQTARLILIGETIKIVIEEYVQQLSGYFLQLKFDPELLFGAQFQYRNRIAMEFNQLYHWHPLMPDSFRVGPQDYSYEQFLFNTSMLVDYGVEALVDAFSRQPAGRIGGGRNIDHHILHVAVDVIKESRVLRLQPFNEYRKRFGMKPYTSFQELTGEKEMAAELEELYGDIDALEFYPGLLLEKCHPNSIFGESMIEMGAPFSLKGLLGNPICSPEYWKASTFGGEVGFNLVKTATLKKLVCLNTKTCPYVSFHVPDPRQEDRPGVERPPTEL
The data set can be described thus: COX-1 enzymatic inhibition assay. The data set is classed as biochemical. The conditions noted are these: for IC50: read-out: Anti-inflammatory (IC50) COX-1. The procedure:
In order to screen for compounds that inhibited COX-1 and Cox-2 activity, enzymatic inhibition assay kits were purchased from Cayman Chemical (cat #701050). Briefly, the compound being examined was treated against a fixed amount of COX-1 and COX-2 enzymes. A cleavable, peroxide chromophore was included in the assay to visualize the peroxidase activity of each enzyme in presence of arachidonic acid as […]. Typically, assays were performed in 96-well format. Each inhibitor, taken from a 1 M stock solution in 100% DMSO, was tested in duplicate at room temperature using the following range of concentrations: 1.9, 3.9, 7.8, 15.6, 31.2, 62.5, 125, 250, 500, and 1000 μM. To each well, 150 μL of Assay Buffer was added along with 10 μL of Hemin, 10 μL of inhibitor diluted in DMSO and 10 μL of either COX-1 or COX-2 enzyme. The compounds were incubated for 5 minutes at room temperature, followed by the addition of 20 μL of Colormietric Substrate solution and 20 μL of arachidonic acid solution to initiate the reaction. The plate was mixed and incubated for 2 minutes before reading the absorbance at 590 nm. The inhibitor concentration vs. % of inhibition was plotted and the IC50 determined.

Setting [4] is: Cutibacterium acnes, ATCC11827, 24 h, read-out: MIC.
Setting [5] is: Cutibacterium acnes, ATCC11827, lowest concentration required to kill the bacterium, read-out: MBC.

The record followed here is patent publication US12358859B2, “Series of compounds for treatment of skin diseases and other conditions” (Unigen, Inc., priority 2018, dated 2025).

Values after ≈ are worked out from the molar mass of the structure shown. Where two headings read alike, the source gives them in different places.

As for `CC(C)=CCCC(C)=Cc1ccc(O)cc1` (mixture of isomers) [Compound 1, (E/Z)-4-(2,6-dimethylhepta-1,5-dienyl)phenol], in data set [1], the “significant whitening of melanocytes observed as early as” value is reported as 3 days, the “alterations of cell morphology” value is given as “without causing any detectable alterations”, the “whitening effects on skin melanocytes” value was “significant whitening effects” and the “whitening effects on melanocytes” value was “significant whitening effects”. Further, the IC50 (in general, the concentration that inhibits the measured activity by half) in data set [2] was 90 µM. In addition, in data set [3] (setting [4]), the MIC was less than 3.9 µg/mL. For the same molecule, the MBC in data set [3] (setting [5]) is less than 3.9 µg/mL. The same molecule displayed an MBC in data set [3] (lowest concentration required to kill the bacterium) of less than 3.9 ppm. Also, the MIC in data set [3] is less than 3.9 ppm. In addition, the IC50 at COX-1 turned out to be 122 µM.

Take `CC(C)=CCC/C(C)=C/c1cc(O)cc(O)c1` [Compound 4, (E/Z)-5-(2,6-dimethylhepta-1,5-dienyl)benzene-1,3-diol]: in data set [1], the “toxicity on reconstructed skin” value was “some toxicity” and the “whitening effects on melanocytes” value was “significant whitening effects”. Moreover, the IC50 in data set [2] worked out at 317 µM. In addition, in data set [3] (setting [4]), the MIC was less than 3.9 µg/mL. Moreover, in data set [3] (setting [5]), the MBC was less than 3.9 µg/mL. Besides, the IC50 at COX-1 amounted to 64 µM.

Consider `CC(C)=CCCC(C)/C=C/c1ccc(O)cc1` (stereo not drawn) [Compound 5, (E)-4-(3,7-dimethylocta-1,6-dienyl)phenol], for which the IC50 in data set [2] is 50 µM. In addition, the MIC in data set [3] (setting [4]) was less than 3.9 µg/mL. In addition, the “Anti-inflammatory (IC50) COX-1” value at COX-1 is recorded as “No Inhibition”.

Turning to `CC(C)=CCCC(C)/C=C/c1ccc(O)cc1O` (stereo not drawn) [Compound 6, (E)-4-(3,7-dimethylocta-1,6-dienyl) benzene-1,3-diol], in data set [1], the “significant whitening of melanocytes observed as early as” value worked out at 3 days, the “alterations of cell morphology” value is listed as “without causing any detectable alterations”, the “whitening effects on skin melanocytes” value was “significant whitening effects” and the “whitening effects on melanocytes” value is “significant whitening effects”. Moreover, in data set [2], the IC50 turned out to be 307 µM. Besides, the MIC in data set [3] (setting [4]) worked out at 3.9 µg/mL (≈ 15.8 µM). The MBC in data set [3] (setting [5]) lay within 3.9 to 31.3 µg/mL (≈ 15.8 to 127 µM). Moreover, the IC50 at COX-1 worked out at 74 µM.

Turning to `CC(C)=CCCC(C)/C=C/c1cc(O)cc(O)c1` (stereo not drawn) [Compound 7, (E)-5-(3,7-dimethylocta-1,6-dienyl) benzene-1,3-diol], in data set [1], the “toxicity on reconstructed skin” value was “some toxicity” and the “whitening effects on melanocytes” value is “significant whitening effects”. For the same molecule, in data set [2], the IC50 is 143 µM. Further, the MIC in data set [3] (setting [4]) came to 7.8 µg/mL (≈ 31.7 µM). Besides, the MBC in data set [3] (setting [5]) fell in the range of 7.8 to 31.3 µg/mL (≈ 31.7 to 127 µM). Also, the IC50 at COX-1 came to 25 µM.

For `CC(C)=CCCC(C)C/C=C\c1cc(O)cc(O)c1` (stereo not drawn) [Compound 15, (Z)-5-(4,8-dimethylnona-1,7-dienyl) benzene-1,3-diol], the “toxicity on reconstructed skin” value in data set [1] is recorded as “some toxicity”. Besides, in data set [1], the “whitening effects on melanocytes” value is “significant whitening effects”. In addition, the values for the IC50 (in data set [2]; on COX-1) were 90 µM and 122 µM, respectively. In data set [3] (setting [4]), the MIC is less than 3.9 µg/mL. Further, the MBC in data set [3] (setting [5]) is less than 3.9 µg/mL.
